± gives the expanded uncertainty stated by the source.
Assay: xn = mol fraction of the nth substance listed
Conditions: 100 kPa, Liquid; for viscosity: Falling or rolling sphere viscometry; for mass density: Vibrating tube method

## CCCCCCCCCCC [undecane] + CCCO
283.15 K, x1 = 0.1003
  viscosity: 2.378 ± 0.03 mPa·s
  mass density: 794.54 ± 1.6 kg/m3
283.15 K, x1 = 0.2009
  viscosity: 2.098 ± 0.027 mPa·s
  mass density: 782.93 ± 1.6 kg/m3
283.15 K, x1 = 0.3004
  viscosity: 1.867 ± 0.024 mPa·s
  mass density: 774.29 ± 1.6 kg/m3
283.15 K, x1 = 0.3997
  viscosity: 1.722 ± 0.022 mPa·s
  mass density: 767.69 ± 1.5 kg/m3
283.15 K, x1 = 0.4998
  viscosity: 1.585 ± 0.02 mPa·s
  mass density: 762.46 ± 1.5 kg/m3
283.15 K, x1 = 0.6005
  viscosity: 1.482 ± 0.019 mPa·s
  mass density: 758.08 ± 1.5 kg/m3
283.15 K, x1 = 0.6974
  viscosity: 1.412 ± 0.018 mPa·s
  mass density: 754.68 ± 1.5 kg/m3
283.15 K, x1 = 0.8
  viscosity: 1.371 ± 0.018 mPa·s
  mass density: 751.72 ± 1.5 kg/m3
283.15 K, x1 = 0.8963
  viscosity: 1.356 ± 0.018 mPa·s
  mass density: 749.45 ± 1.5 kg/m3
283.15 K, x1 = 1
  viscosity: 1.371 ± 0.018 mPa·s
  mass density: 747.78 ± 1.5 kg/m3
288.15 K, x1 = 0.1003
  viscosity: 2.104 ± 0.027 mPa·s
  mass density: 790.63 ± 1.6 kg/m3
288.15 K, x1 = 0.2009
  viscosity: 1.861 ± 0.024 mPa·s
  mass density: 779.03 ± 1.6 kg/m3
288.15 K, x1 = 0.3004
  viscosity: 1.69 ± 0.022 mPa·s
  mass density: 770.41 ± 1.5 kg/m3
288.15 K, x1 = 0.3997
  viscosity: 1.539 ± 0.02 mPa·s
  mass density: 763.82 ± 1.5 kg/m3
288.15 K, x1 = 0.4998
  viscosity: 1.426 ± 0.018 mPa·s
  mass density: 758.6 ± 1.5 kg/m3
288.15 K, x1 = 0.6005
  viscosity: 1.338 ± 0.017 mPa·s
  mass density: 754.26 ± 1.5 kg/m3
288.15 K, x1 = 0.6974
  viscosity: 1.28 ± 0.017 mPa·s
  mass density: 750.86 ± 1.5 kg/m3
288.15 K, x1 = 0.8
  viscosity: 1.246 ± 0.016 mPa·s
  mass density: 747.96 ± 1.5 kg/m3
288.15 K, x1 = 0.8963
  viscosity: 1.235 ± 0.016 mPa·s
  mass density: 745.71 ± 1.5 kg/m3
288.15 K, x1 = 1
  viscosity: 1.249 ± 0.017 mPa·s
  mass density: 744.06 ± 1.5 kg/m3
293.15 K, x1 = 0.1003
  viscosity: 1.865 ± 0.024 mPa·s
  mass density: 786.69 ± 1.6 kg/m3
293.15 K, x1 = 0.2009
  viscosity: 1.656 ± 0.021 mPa·s
  mass density: 775.1 ± 1.6 kg/m3
293.15 K, x1 = 0.3004
  viscosity: 1.515 ± 0.019 mPa·s
  mass density: 766.5 ± 1.5 kg/m3
293.15 K, x1 = 0.3997
  viscosity: 1.382 ± 0.018 mPa·s
  mass density: 759.92 ± 1.5 kg/m3
293.15 K, x1 = 0.4998
  viscosity: 1.286 ± 0.017 mPa·s
  mass density: 754.73 ± 1.5 kg/m3
293.15 K, x1 = 0.6005
  viscosity: 1.214 ± 0.016 mPa·s
  mass density: 750.41 ± 1.5 kg/m3
293.15 K, x1 = 0.6974
  viscosity: 1.165 ± 0.015 mPa·s
  mass density: 747.04 ± 1.5 kg/m3
293.15 K, x1 = 0.8
  viscosity: 1.138 ± 0.015 mPa·s
  mass density: 744.17 ± 1.5 kg/m3
293.15 K, x1 = 0.8963
  viscosity: 1.13 ± 0.015 mPa·s
  mass density: 741.96 ± 1.5 kg/m3
293.15 K, x1 = 1
  viscosity: 1.145 ± 0.015 mPa·s
  mass density: 740.35 ± 1.5 kg/m3
298.15 K, x1 = 0.1003
  viscosity: 1.655 ± 0.021 mPa·s
  mass density: 782.72 ± 1.6 kg/m3
298.15 K, x1 = 0.2009
  viscosity: 1.481 ± 0.019 mPa·s
  mass density: 771.14 ± 1.5 kg/m3
298.15 K, x1 = 0.3004
  viscosity: 1.357 ± 0.017 mPa·s
  mass density: 762.56 ± 1.5 kg/m3
298.15 K, x1 = 0.3997
  viscosity: 1.246 ± 0.016 mPa·s
  mass density: 756 ± 1.5 kg/m3
298.15 K, x1 = 0.4998
  viscosity: 1.166 ± 0.015 mPa·s
  mass density: 750.83 ± 1.5 kg/m3
298.15 K, x1 = 0.6005
  viscosity: 1.106 ± 0.014 mPa·s
  mass density: 746.54 ± 1.5 kg/m3
298.15 K, x1 = 0.6974
  viscosity: 1.065 ± 0.014 mPa·s
  mass density: 743.2 ± 1.5 kg/m3
298.15 K, x1 = 0.8
  viscosity: 1.044 ± 0.014 mPa·s
  mass density: 740.37 ± 1.5 kg/m3
298.15 K, x1 = 0.8963
  viscosity: 1.038 ± 0.014 mPa·s
  mass density: 738.2 ± 1.5 kg/m3
298.15 K, x1 = 1
  viscosity: 1.062 ± 0.014 mPa·s
  mass density: 736.64 ± 1.5 kg/m3
303.15 K, x1 = 0.1003
  viscosity: 1.487 ± 0.019 mPa·s
  mass density: 778.73 ± 1.6 kg/m3
303.15 K, x1 = 0.2009
  viscosity: 1.332 ± 0.017 mPa·s
  mass density: 767.15 ± 1.5 kg/m3
303.15 K, x1 = 0.3004
  viscosity: 1.223 ± 0.015 mPa·s
  mass density: 758.59 ± 1.5 kg/m3
303.15 K, x1 = 0.3997
  viscosity: 1.129 ± 0.014 mPa·s
  mass density: 752.04 ± 1.5 kg/m3
303.15 K, x1 = 0.4998
  viscosity: 1.061 ± 0.014 mPa·s
  mass density: 746.9 ± 1.5 kg/m3
303.15 K, x1 = 0.6005
  viscosity: 1.012 ± 0.013 mPa·s
  mass density: 742.64 ± 1.5 kg/m3
303.15 K, x1 = 0.6974
  viscosity: 0.978 ± 0.013 mPa·s
  mass density: 739.34 ± 1.5 kg/m3
303.15 K, x1 = 0.8
  viscosity: 0.961 ± 0.013 mPa·s
  mass density: 736.55 ± 1.5 kg/m3
303.15 K, x1 = 0.8963
  viscosity: 0.957 ± 0.013 mPa·s
  mass density: 734.41 ± 1.5 kg/m3
303.15 K, x1 = 1
  viscosity: 0.982 ± 0.013 mPa·s
  mass density: 732.93 ± 1.5 kg/m3
308.15 K, x1 = 0.1003
  viscosity: 1.333 ± 0.017 mPa·s
  mass density: 774.69 ± 1.6 kg/m3
308.15 K, x1 = 0.2009
  viscosity: 1.196 ± 0.015 mPa·s
  mass density: 763.12 ± 1.5 kg/m3
308.15 K, x1 = 0.3004
  viscosity: 1.106 ± 0.014 mPa·s
  mass density: 754.57 ± 1.5 kg/m3
308.15 K, x1 = 0.3997
  viscosity: 1.025 ± 0.013 mPa·s
  mass density: 748.05 ± 1.5 kg/m3
308.15 K, x1 = 0.4998
  viscosity: 0.968 ± 0.012 mPa·s
  mass density: 742.93 ± 1.5 kg/m3
308.15 K, x1 = 0.6005
  viscosity: 0.929 ± 0.012 mPa·s
  mass density: 738.71 ± 1.5 kg/m3
308.15 K, x1 = 0.6974
  viscosity: 0.901 ± 0.012 mPa·s
  mass density: 735.45 ± 1.5 kg/m3
308.15 K, x1 = 0.8
  viscosity: 0.886 ± 0.012 mPa·s
  mass density: 732.7 ± 1.5 kg/m3
308.15 K, x1 = 0.8963
  viscosity: 0.885 ± 0.012 mPa·s
  mass density: 730.61 ± 1.5 kg/m3
308.15 K, x1 = 1
  viscosity: 0.91 ± 0.012 mPa·s
  mass density: 729.23 ± 1.5 kg/m3
313.15 K, x1 = 0.1003
  viscosity: 1.198 ± 0.015 mPa·s
  mass density: 770.6 ± 1.5 kg/m3
313.15 K, x1 = 0.2009
  viscosity: 1.08 ± 0.014 mPa·s
  mass density: 759.04 ± 1.5 kg/m3
313.15 K, x1 = 0.3004
  viscosity: 1.004 ± 0.013 mPa·s
  mass density: 750.52 ± 1.5 kg/m3
313.15 K, x1 = 0.3997
  viscosity: 0.935 ± 0.012 mPa·s
  mass density: 744.02 ± 1.5 kg/m3
313.15 K, x1 = 0.4998
  viscosity: 0.888 ± 0.011 mPa·s
  mass density: 738.93 ± 1.5 kg/m3
313.15 K, x1 = 0.6005
  viscosity: 0.855 ± 0.011 mPa·s
  mass density: 734.75 ± 1.5 kg/m3
313.15 K, x1 = 0.6974
  viscosity: 0.833 ± 0.011 mPa·s
  mass density: 731.52 ± 1.5 kg/m3
313.15 K, x1 = 0.8
  viscosity: 0.821 ± 0.011 mPa·s
  mass density: 728.83 ± 1.5 kg/m3
313.15 K, x1 = 0.8963
  viscosity: 0.822 ± 0.011 mPa·s
  mass density: 726.79 ± 1.5 kg/m3
313.15 K, x1 = 1
  viscosity: 0.847 ± 0.011 mPa·s
  mass density: 725.53 ± 1.5 kg/m3
318.15 K, x1 = 0.1003
  viscosity: 1.079 ± 0.014 mPa·s
  mass density: 766.466 ± 1.5 kg/m3
318.15 K, x1 = 0.2009
  viscosity: 0.979 ± 0.012 mPa·s
  mass density: 754.911 ± 1.5 kg/m3
318.15 K, x1 = 0.3004
  viscosity: 0.913 ± 0.012 mPa·s
  mass density: 746.411 ± 1.5 kg/m3
318.15 K, x1 = 0.3997
  viscosity: 0.856 ± 0.011 mPa·s
  mass density: 739.944 ± 1.5 kg/m3
318.15 K, x1 = 0.4998
  viscosity: 0.816 ± 0.01 mPa·s
  mass density: 734.891 ± 1.5 kg/m3
318.15 K, x1 = 0.6005
  viscosity: 0.789 ± 0.01 mPa·s
  mass density: 730.749 ± 1.5 kg/m3
318.15 K, x1 = 0.6974
  viscosity: 0.772 ± 0.01 mPa·s
  mass density: 727.572 ± 1.5 kg/m3
318.15 K, x1 = 0.8
  viscosity: 0.763 ± 0.01 mPa·s
  mass density: 724.934 ± 1.5 kg/m3
318.15 K, x1 = 0.8963
  viscosity: 0.765 ± 0.01 mPa·s
  mass density: 722.953 ± 1.5 kg/m3
318.15 K, x1 = 1
  viscosity: 0.79 ± 0.01 mPa·s
  mass density: 721.818 ± 1.5 kg/m3
323.15 K, x1 = 0.1003
  viscosity: 0.976 ± 0.012 mPa·s
323.15 K, x1 = 0.2009
  viscosity: 0.889 ± 0.011 mPa·s
323.15 K, x1 = 0.3004
  viscosity: 0.828 ± 0.01 mPa·s
323.15 K, x1 = 0.3997
  viscosity: 0.786 ± 0.01 mPa·s
323.15 K, x1 = 0.4998
  viscosity: 0.754 ± 0.0097 mPa·s
323.15 K, x1 = 0.6005
  viscosity: 0.732 ± 0.0094 mPa·s
323.15 K, x1 = 0.6974
  viscosity: 0.717 ± 0.0093 mPa·s
323.15 K, x1 = 0.8
  viscosity: 0.712 ± 0.0093 mPa·s
323.15 K, x1 = 0.8963
  viscosity: 0.715 ± 0.0095 mPa·s
323.15 K, x1 = 1
  viscosity: 0.74 ± 0.0099 mPa·s

Source: the NIST ThermoML archive (doi:10.1021/acs.jced.6b00121)
